Experimental data reported in PubChem BioAssay (NCI).
“And” between values parts separate entries of the source, which are not always exact repeats. Equal entries are not always repeated.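 How tested: cells in 96-well plates exposed to compound for 48 hours at five concentrations. GI50: concentration for 50% inhibition of growth. TGI denotes the concentration required for complete inhibition of growth.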

How the values were obtained:
Test in all cases: inhibition of tumour cell growth, NCI panel, 48 h
CCRF-CEM leukemia = system: CCRF-CEM leukemia
M14 melanoma = system: M14 melanoma
HL-60(TB) leukemia = system: HL-60(TB) leukemia
HCT-116 colon = system: HCT-116 colon
COLO 205 colon = system: COLO 205 colon
OVCAR-3 ovarian = system: OVCAR-3 ovarian
SW-620 colon = system: SW-620 colon
OVCAR-5 ovarian = system: OVCAR-5 ovarian

Compound	GI50 (CCRF-CEM leukemia)	TGI (CCRF-CEM leukemia)	GI50 (M14 melanoma)	TGI (M14 melanoma)	GI50 (HL-60(TB) leukemia)	TGI (HL-60(TB) leukemia)	GI50 (HCT-116 colon)	TGI (HCT-116 colon)	GI50 (COLO 205 colon)	TGI (COLO 205 colon)	GI50 (OVCAR-3 ovarian)	TGI (OVCAR-3 ovarian)	GI50 (SW-620 colon)	TGI (SW-620 colon)	GI50 (OVCAR-5 ovarian)	TGI (OVCAR-5 ovarian)
O=C(COc1cccc(/C=C2\COc3ccccc3C2=O)c1)c1ccccc1	1.98 µM	7.62 µM	3.12 µM	14 µM	5.85 µM	29.2 µM	2.12 µM	4.08 µM	2.93 µM	10.3 µM	2.39 µM	5.12 µM	1.66 µM	3.83 µM	2.8 µM	7.23 µM
COc1ccc(CN2C(=O)/C(=C\C(=O)c3ccc(OCCN4CCCC4)cc3)c3ccccc32)cc1	3.34 µM	32.2 µM	2.25 µM	5.34 µM	2.61 µM	6.7 µM	–	–	2.28 µM	5.52 µM	1.8 µM	3.48 µM	–	–	1.78 µM	4.76 µM
C=C1C[C@@H](O)[C@@H](Br)C(C)(C)[C@]12CCC(C)(Br)C(Cl)C2 (some centres undefined)	1.05 µM	> 50 µM and 14.4 µM	17.9 µM	> 50 µM and 34.6 µM	–	11.8 µM	19.3 µM	> 50 µM and 36.2 µM	0.627 µM	1.71 µM and 2.09 µM	17.4 µM	> 50 µM and 33.7 µM	15.2 µM	> 50 µM and 33 µM	1.23 µM	26.6 µM and 8.52 µM
CCOC(=O)Nc1ccc2nc(N3CCCCCC3)sc2c1	1.97 µM	> 100 µM	0.719 µM	> 70.4 µM	0.436 µM	21 µM	0.573 µM	> 77.9 µM	1.35 µM	> 59 µM	1.66 µM	10.7 µM	0.567 µM	> 100 µM	8.28 µM	> 100 µM
COc1ccc(/C(=C/c2ccc3ccccc3c2)c2nn[nH]n2)cc1OC	3.33 µM	> 100 µM	1.9 µM	> 100 µM	2.56 µM	6.94 µM	2.42 µM	> 100 µM	2.27 µM	6.56 µM	1.69 µM	7.87 µM	1.36 µM	> 100 µM	6.08 µM	> 100 µM
C=C[C@H]1CN2CCc3c([nH]c4c([C@@H]5CCCN5C)c(O)ccc34)[C@@H]2C[C@@H]1C[C@H]1c2[nH]c3ccccc3c2CCN1C	0.484 µM and 0.475 µM	–	1.25 µM and 0.211 µM	2.75 µM and 0.436 µM and 2.55 µM	–	2.06 µM and 1.85 µM and 1.9 µM	1.13 µM	2.68 µM and 1.48 µM	–	3.09 µM and 2.64 µM and 3.04 µM	–	2.8 µM and 3.16 µM	2.48 µM	–	–	3.29 µM and 3.31 µM and 3.39 µM
Cc1cc2c(C(=O)NCC#N)cccc2n1-c1nc2c(c(NCc3ccccc3)n1)CCCC2	–	–	0.22 µM	0.532 µM	0.311 µM	> 100 µM	0.185 µM	0.637 µM	0.201 µM	0.404 µM	0.245 µM	0.62 µM	0.355 µM	1.29 µM	0.395 µM	1.94 µM
Nc1nc(=S)c2ncn(C3OC(CO)C(O)C3O)c2[nH]1 (centres undefined)	0.318 µM	> 68.2 µM	0.304 µM	3.13 µM	1.67 µM	11 µM	0.347 µM	–	2.18 µM	7.82 µM	0.851 µM	–	1.7 µM	> 100 µM	0.827 µM	> 100 µM
CC(=O)N(C)c1cc(NCc2ccccc2)ccc1OCc1ccccc1	–	45 µM	–	50.5 µM	–	77.9 µM	–	> 100 µM	–	54.8 µM	–	32.8 µM	–	56.5 µM	–	38.3 µM
CN1CCN(Cc2ccc(NC(=O)c3cncc(C#Cc4c(N)ncc5c(F)cccc45)c3)cc2C(F)(F)F)CC1	–	–	0.388 µM	1.17 µM	0.33 µM	1.22 µM	0.517 µM	1.2 µM	0.638 µM	1.42 µM	0.828 µM	1.53 µM	0.454 µM	1.16 µM	0.794 µM	1.56 µM
COC1=CC(c2ccc[nH]2)=N/C1=C\c1[nH]c(C)c(C(=O)Oc2ccccc2)c1C	0.0625 µM	> 100 µM	–	–	–	–	0.0427 µM	1.17 µM	0.345 µM	1.43 µM	0.212 µM	1.18 µM	–	–	0.389 µM	1.99 µM
C=C1C(=O)O[C@@H]2C[C@@H]1CC[C@]1(C)O[C@H]1CC/C(C)=C/CC[C@@]2(C)O	> 100 µM	> 100 µM	16.8 µM	35.3 µM	–	–	13.1 µM	25.8 µM	18.1 µM	34.8 µM	23.1 µM	64.1 µM	15.8 µM	33.7 µM	28.6 µM	96 µM
Cc1cncc(-c2nc(NCCc3c[nH]c4ccccc34)c3ncn(C(C)C)c3n2)c1	2.99 µM	9.84 µM	3.94 µM	16.9 µM	–	–	3.88 µM	> 100 µM	2.9 µM	7.26 µM	5.67 µM	40.9 µM	3.48 µM	15.1 µM	3.45 µM	18.4 µM
COC(=O)C(=NNc1ccccc1[N+](=O)[O-])C(=O)OC	–	> 100 µM	–	–	–	> 100 µM	–	> 100 µM	–	> 100 µM	–	–	–	> 100 µM	–	> 100 µM
O=C1Nc2ccc(O)cc2/C1=C\c1ccncc1	–	–	15.8 µM	39.6 µM	36 µM	> 100 µM	14.7 µM	39.9 µM	26.3 µM	64.8 µM	13.3 µM	41 µM	25.5 µM	58.3 µM	27.2 µM	57 µM
O=C1CC(C(=O)O)Cc2c(Br)ccc(O)c21 (centres undefined)	–	> 100 µM	–	> 100 µM	–	> 100 µM	–	> 100 µM	–	> 100 µM	–	> 100 µM	–	–	–	> 100 µM
C/C=C(\C)c1cc(=O)c2c(C)cc3c(c2o1)C(OC)(OC(C)=O)c1c(O)c(C2CC(C)(N(C)C)C(OC(C)=O)C(C)O2)cc(C2CC(N(C)C)C(OC(C)=O)C(C)O2)c1C3=O (centres undefined)	–	10.1 µM	–	–	–	–	–	> 34.1 µM	–	–	–	> 41.8 µM	–	4.94 µM	–	9.75 µM
COc1cc(-c2cc(-c3cccs3)c(C#N)c(N3CCOCC3)n2)cc(OC)c1OC	5.66 µM	> 100 µM	–	–	3.12 µM	29.7 µM	4.14 µM	> 100 µM	2.3 µM	6.62 µM	14.9 µM	> 88.9 µM	1.95 µM	4.62 µM	> 100 µM	> 100 µM
